# Assay results: ChEMBL document CHEMBL5331063, “Recent advances of β-catenin small molecule inhibitors for cancer therapy: Current development and future perspectives” (Eur J Med Chem, 2022)
# Columns and labels:
# TCF4-CTNNB1 complex [1] = molecular target: T1, TCF4-CTNNB1 complex (Homo sapiens, UniProt P15884+P35222); assay: Inhibition of wild type beta-Catenin/TCF4 protein-protein interaction in human Hep3B cells incubated for 24 hrs by TOPFLASH reporter assay; assay type: cell-based
# T1 sequence (P35222 whole entry): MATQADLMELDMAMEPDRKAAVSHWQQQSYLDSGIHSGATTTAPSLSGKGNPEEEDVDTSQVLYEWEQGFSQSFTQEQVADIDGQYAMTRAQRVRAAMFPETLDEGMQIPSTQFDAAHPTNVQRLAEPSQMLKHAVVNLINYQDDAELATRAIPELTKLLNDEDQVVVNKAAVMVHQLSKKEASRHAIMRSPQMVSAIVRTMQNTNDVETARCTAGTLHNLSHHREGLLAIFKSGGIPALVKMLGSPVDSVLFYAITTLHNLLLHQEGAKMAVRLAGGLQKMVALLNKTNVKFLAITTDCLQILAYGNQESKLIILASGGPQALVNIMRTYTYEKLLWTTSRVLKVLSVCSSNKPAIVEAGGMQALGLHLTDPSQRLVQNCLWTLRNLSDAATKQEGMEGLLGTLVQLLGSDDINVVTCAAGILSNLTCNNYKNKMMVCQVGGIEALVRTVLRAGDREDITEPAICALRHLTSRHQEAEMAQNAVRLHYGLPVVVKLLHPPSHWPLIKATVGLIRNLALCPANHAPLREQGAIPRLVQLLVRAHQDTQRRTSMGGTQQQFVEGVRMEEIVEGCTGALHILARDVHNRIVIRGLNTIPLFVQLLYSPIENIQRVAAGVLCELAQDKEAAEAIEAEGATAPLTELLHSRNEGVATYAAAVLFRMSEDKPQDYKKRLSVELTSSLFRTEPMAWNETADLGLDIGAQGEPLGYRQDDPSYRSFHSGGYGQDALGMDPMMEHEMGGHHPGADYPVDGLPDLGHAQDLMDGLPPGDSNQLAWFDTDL
# T1 sequence (P15884 whole entry): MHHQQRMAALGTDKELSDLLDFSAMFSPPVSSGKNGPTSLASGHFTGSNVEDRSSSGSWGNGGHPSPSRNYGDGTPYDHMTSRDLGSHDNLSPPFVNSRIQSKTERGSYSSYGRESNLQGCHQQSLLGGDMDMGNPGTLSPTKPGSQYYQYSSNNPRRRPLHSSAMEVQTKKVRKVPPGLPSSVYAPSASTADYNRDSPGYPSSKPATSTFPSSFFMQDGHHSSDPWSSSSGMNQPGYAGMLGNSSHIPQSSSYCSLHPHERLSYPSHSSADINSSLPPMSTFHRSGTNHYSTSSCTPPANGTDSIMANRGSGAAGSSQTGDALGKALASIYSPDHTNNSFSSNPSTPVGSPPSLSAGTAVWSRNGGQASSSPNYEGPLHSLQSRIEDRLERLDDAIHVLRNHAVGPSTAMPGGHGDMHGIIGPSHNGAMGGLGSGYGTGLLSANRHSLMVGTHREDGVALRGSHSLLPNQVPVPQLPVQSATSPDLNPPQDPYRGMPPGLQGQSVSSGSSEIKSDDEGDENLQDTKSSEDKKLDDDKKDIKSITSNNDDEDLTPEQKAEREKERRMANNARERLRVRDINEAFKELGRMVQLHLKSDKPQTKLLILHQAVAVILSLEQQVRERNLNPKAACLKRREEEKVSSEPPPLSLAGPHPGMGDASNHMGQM
# [2] = Inhibition of beta-Catenin S33Y mutant/TCF4 protein-protein interaction in human SNU-398 cells incubated for 24 hrs by TOPFLASH reporter assay; assay type: cell-based
# TCF4-CTNNB1 complex [3] = molecular target: T2, TCF4-CTNNB1 complex (Homo sapiens, UniProt P35222+Q9NQB0); assay: Inhibition of beta-Catenin/TCF4 (unknown origin) protein-protein interaction; assay type: protein-complex assay
# T2 sequence (P35222 whole entry): T1 sequence (P35222 whole entry)
# T2 sequence (P15884 whole entry): T1 sequence (P15884 whole entry)
# TCF4-CTNNB1 complex [4] = molecular target: T2, TCF4-CTNNB1 complex; assay: Inhibition of beta-Catenin/GST-tagged TCF4 protein-protein interaction in human HCT-116 cells incubated for 24 hrs by immunoprecipitation assay; assay type: cell-based
# TCF4-CTNNB1 complex [5] = molecular target: T2, TCF4-CTNNB1 complex; assay: Inhibition of human beta-Catenin/GST-tagged TCF4 (unknown origin) protein-protein interaction incubated for 2 hrs by ELISA assay; assay type: protein-complex assay
# [6] = Inhibition of Wnt1 signalling in human SW480 cells expressing ST-Luc incubated for 24 hrs by luciferase reporter assay; assay type: cell-based; conditions: SW480, 24 h
# [7] = molecular target: T3, beta-catenin-B-cell lymphoma 9 protein complex (Homo sapiens, UniProt O00512+P35222); assay: Inhibition of Flag-tagged beta-Catenin (unknown origin)/Flag-tagged BCL9 (unknown origin) protein-protein interaction assessed as inhibition constant by ELISA assay; assay type: protein-complex assay
# T3 sequence (P35222 whole entry): T1 sequence (P35222 whole entry)
# T3 sequence (O00512 whole entry): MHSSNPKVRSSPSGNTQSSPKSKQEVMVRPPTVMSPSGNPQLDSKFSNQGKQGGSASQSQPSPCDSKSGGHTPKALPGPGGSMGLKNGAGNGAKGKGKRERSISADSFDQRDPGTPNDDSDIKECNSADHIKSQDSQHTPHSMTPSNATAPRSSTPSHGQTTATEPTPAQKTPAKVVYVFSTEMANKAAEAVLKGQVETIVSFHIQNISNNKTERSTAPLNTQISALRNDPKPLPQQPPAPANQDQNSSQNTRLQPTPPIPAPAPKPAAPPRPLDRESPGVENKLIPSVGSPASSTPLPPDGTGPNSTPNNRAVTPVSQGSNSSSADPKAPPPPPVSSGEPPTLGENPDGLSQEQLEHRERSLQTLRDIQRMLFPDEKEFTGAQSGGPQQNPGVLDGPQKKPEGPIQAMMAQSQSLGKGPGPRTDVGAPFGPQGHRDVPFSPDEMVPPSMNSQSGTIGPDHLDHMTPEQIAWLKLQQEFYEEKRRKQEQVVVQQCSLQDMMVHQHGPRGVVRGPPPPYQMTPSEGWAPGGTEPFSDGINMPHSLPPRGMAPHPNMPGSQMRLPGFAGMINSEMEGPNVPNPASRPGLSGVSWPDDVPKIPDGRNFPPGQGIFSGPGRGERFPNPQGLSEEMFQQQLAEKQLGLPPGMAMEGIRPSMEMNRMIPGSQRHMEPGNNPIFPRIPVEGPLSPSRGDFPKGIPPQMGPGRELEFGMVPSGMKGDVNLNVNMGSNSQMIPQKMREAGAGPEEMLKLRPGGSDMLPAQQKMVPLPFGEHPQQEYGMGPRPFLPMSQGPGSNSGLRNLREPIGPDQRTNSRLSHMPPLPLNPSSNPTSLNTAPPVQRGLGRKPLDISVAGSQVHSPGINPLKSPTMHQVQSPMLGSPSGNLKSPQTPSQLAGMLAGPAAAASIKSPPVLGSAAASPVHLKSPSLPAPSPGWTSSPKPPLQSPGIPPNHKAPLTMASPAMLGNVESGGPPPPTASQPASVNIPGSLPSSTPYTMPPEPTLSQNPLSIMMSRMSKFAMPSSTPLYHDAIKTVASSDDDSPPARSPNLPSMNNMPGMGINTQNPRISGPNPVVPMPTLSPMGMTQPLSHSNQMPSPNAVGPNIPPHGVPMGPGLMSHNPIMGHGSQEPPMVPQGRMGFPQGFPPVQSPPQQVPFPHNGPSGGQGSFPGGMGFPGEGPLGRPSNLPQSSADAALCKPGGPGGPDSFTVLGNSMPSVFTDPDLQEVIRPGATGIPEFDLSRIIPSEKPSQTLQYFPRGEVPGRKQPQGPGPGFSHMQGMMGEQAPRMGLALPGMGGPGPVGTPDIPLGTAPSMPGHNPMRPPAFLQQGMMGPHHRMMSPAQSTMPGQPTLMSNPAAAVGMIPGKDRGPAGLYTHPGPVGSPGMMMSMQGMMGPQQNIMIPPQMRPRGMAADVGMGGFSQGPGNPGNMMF
# TCF4-CTNNB1 complex [8] = molecular target: T1, TCF4-CTNNB1 complex; assay: Inhibition of beta-Catenin (301 to 670 residues)/TCF4 protein-protein interaction in human HCT-116 cells incubated for 20 hrs by TOPFLASH luciferase reporter assay; assay type: cell-based
compound,measurement,setting,value
O=C(Nc1cnn(Cc2ccc(F)cc2)c1)C1CC1c1ccccc1 (centres undefined),IC50,TCF4-CTNNB1 complex [1],25 µM
same,IC50,[2],32 µM
C[C@H]1[C@H]2N(C(=O)CN(C)N2C(=O)NCc2ccccc2)[C@@H](Cc2ccc(OP(=O)(O)O)cc2)C(=O)N1Cc1cccc2cccnc12,IC50,TCF4-CTNNB1 complex [3],0.15 µM
COc1c(CC(C)OC(=O)c2c(C)cc(O)cc2C)c2c3c(CC(C)OC(=O)c4c(C)cc(O)cc4O)c(OC)c(=O)c4c(O)cc(OC)c(c5c(OC)cc(O)c(c1=O)c52)c43 (centres undefined),IC50,TCF4-CTNNB1 complex [4],10 µM
same,IC50,TCF4-CTNNB1 complex [5],4.1 µM
C=C1C(=O)[C@@]23[C@H](O)C[C@@H]4C(C)(C)CC[C@H](O)[C@@]4(COC(C)=O)[C@@H]2CC[C@H]1[C@H]3O,IC50,[6],0.6 µM
CC(C)c1cc2c(c(O)c1O)[C@@]1(C(=O)O)CCCC(C)(C)C1CC2 (some centres undefined),Ki,[7],3.3 µM
COC(=O)c1cccc(NS(=O)(=O)c2ccc(OC)cc2)c1,IC50,TCF4-CTNNB1 complex [8],0.53 µM
COC(=O)c1c(C)cc2c(c1O)[C@]1(O)C(=O)c3cc4c(c(O)c3C(=O)[C@]1(OC)[C@H](O)C2)C(=O)C=C(N[C@@H]1O[C@H](C)[C@@H](OC)[C@H](O)[C@@H]1OC)C4=O,IC50,TCF4-CTNNB1 complex [5],0.64 µM
